# Test results from patent US11787785B2 (NOVARTIS AG, priority 2021, dated 2023).
# Where two headings read alike, the source gives them in different places.
# Target: T1, WIZ protein (HiBit-WIZ fusion protein) (Homo sapiens, UniProt O95785+Q96SW2)
# T1 construct: expressed in transfected cells
# Test: Quantification of WIZ protein levels in HiBit tag fusion protein assay (WIZ HiBit assay in 293T cells)
# Type: cell-based
# Parameters: remaining activity / Dmax: dose or concentration left out as unconfirmed
# Summary of the method: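 Luminescence after LgBit complementation quantified remaining HiBit-WIZ in lysates of single-copy stable 293T lines. Cells dosed ~18 h at 37 °C with 10-point, 5-fold dilutions (highest 25 μM); DMSO set to 100%, fitted curve gave % remaining at 25 μM (Amax).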
# [1] = HEK-293T, 100 − Amax, at 25 uM; 293T cells; read-out: % degradation of WIZ (100 − Amax)
# [2] = HEK-293T, DMSO-normalized, curve-fitted percentage of WIZ-HiBit remaining at 25 uM; 293T cells; read-out: WIZ Amax
# [3] = WIZ HiBit assay in 293T cells; 10-point, 5-fold dose response, highest concentration 25 μM, about 18 hours; read-out: WIZ AC50
# T1 sequence (O95785 whole entry, the tested form may be a part): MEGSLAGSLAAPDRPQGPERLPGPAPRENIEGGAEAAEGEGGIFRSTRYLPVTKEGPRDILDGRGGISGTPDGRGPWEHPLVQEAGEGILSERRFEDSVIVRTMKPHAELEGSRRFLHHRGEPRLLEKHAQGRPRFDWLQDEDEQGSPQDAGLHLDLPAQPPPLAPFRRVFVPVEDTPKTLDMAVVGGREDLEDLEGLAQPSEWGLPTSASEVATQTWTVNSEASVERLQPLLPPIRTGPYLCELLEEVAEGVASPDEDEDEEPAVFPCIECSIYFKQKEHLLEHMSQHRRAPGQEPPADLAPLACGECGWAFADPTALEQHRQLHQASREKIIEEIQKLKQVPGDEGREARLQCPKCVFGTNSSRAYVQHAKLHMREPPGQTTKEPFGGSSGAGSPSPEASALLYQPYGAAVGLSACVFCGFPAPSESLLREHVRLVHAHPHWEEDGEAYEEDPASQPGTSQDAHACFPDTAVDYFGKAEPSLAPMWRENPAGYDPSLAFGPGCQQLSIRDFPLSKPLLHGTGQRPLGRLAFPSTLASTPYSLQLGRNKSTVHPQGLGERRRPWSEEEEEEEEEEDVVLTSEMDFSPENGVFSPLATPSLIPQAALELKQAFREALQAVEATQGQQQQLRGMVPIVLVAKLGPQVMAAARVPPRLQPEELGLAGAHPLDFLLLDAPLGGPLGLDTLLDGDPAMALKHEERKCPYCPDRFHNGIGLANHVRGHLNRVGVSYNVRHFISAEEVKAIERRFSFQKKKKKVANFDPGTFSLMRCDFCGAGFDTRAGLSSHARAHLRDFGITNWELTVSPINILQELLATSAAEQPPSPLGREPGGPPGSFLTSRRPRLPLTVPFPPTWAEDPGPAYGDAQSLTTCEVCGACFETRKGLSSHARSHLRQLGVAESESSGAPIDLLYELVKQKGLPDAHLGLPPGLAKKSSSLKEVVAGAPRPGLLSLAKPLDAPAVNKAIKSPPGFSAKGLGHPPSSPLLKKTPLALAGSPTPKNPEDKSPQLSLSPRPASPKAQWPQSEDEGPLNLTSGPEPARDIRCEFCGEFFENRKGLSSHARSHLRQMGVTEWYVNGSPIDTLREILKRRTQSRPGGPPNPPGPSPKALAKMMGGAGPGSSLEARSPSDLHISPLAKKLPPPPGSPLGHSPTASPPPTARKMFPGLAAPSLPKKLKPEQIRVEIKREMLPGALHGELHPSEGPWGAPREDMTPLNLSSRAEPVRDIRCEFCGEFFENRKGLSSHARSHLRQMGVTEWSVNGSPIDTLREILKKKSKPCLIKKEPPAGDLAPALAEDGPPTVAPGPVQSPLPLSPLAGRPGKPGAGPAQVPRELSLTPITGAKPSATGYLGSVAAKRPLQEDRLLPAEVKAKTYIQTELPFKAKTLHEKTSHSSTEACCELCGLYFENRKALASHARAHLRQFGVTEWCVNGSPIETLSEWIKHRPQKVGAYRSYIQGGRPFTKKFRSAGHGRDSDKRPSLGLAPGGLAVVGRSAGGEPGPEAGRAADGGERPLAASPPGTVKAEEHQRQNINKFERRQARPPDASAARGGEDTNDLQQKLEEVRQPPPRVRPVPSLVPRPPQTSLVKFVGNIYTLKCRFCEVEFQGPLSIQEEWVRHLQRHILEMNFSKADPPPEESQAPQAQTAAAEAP
# T1 sequence (Q96SW2 whole entry, the tested form may be a part): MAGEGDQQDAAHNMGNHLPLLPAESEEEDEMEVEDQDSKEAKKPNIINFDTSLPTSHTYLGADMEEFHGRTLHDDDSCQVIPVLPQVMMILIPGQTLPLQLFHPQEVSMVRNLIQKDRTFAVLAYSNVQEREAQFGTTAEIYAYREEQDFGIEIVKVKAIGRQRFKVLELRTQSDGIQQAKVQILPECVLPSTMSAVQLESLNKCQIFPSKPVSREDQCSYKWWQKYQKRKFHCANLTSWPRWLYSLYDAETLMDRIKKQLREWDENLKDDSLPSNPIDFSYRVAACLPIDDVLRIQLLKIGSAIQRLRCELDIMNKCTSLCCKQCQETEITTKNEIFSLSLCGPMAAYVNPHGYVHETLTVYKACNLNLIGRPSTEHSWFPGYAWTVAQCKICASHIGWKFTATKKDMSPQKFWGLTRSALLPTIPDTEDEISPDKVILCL
# T1 sequence (Q16531 whole entry partner, the tested form may be a part): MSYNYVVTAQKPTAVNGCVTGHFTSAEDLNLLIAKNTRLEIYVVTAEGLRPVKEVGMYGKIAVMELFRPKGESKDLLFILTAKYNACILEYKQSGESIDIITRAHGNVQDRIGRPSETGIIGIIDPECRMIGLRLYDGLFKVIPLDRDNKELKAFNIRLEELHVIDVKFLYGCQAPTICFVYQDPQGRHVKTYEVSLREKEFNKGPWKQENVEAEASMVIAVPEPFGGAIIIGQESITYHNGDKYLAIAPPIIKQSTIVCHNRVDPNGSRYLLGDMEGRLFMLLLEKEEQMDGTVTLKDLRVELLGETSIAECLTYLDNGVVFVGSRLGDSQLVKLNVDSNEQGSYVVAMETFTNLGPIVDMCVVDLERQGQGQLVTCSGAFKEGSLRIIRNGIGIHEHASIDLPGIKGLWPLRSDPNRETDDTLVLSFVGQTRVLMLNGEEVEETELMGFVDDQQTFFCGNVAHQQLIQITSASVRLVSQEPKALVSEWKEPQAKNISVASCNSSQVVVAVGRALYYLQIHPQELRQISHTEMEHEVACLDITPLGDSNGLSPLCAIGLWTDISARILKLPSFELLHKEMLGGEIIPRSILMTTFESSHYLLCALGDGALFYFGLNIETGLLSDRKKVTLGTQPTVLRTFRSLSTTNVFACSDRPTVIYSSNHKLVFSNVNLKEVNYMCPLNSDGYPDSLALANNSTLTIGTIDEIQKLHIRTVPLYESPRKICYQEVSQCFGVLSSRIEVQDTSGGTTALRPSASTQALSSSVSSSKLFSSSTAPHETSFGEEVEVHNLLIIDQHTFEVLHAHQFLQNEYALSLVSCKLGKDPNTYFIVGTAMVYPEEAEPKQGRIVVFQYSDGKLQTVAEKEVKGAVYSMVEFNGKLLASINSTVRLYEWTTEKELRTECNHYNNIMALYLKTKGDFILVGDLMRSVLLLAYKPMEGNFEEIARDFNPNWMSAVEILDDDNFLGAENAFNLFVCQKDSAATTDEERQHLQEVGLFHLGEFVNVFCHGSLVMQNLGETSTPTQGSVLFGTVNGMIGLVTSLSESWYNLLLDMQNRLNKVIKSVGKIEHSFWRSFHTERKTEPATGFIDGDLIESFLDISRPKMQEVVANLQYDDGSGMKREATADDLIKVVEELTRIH
Dmax at 25 µM [1],remaining activity at 25 µM [2],DC50 [3],Compound,"Dmax (HEK-293T, read-out: % degradation of WIZ (100 − Amax))","remaining activity (HEK-293T, read-out: WIZ Amax)","DC50 (read-out: WIZ AC50; WIZ HiBit assay in 293T cells; 10-point, 5-fold dose response, highest concentration 25 μM, about 18 hours)"
53%,47%,1180 nM,"COC[C@H]1CN(Cc2ccn3ncc(N4CCC(=O)NC4=O)c3c2)CCN1CC1CCCCC1 [Example 244, (R)-1-(5-((4-(cyclohexylmethyl)-3-(methoxymethyl)piperazin-1-yl)methyl)pyrazolo[1,5-a]pyridin-3-yl)dihydropyrimidine-2,4(1H,3H)-dione]",,,
69%,31%,148 nM,"C[C@H]1CN(Cc2ccn3ncc(N4CCC(=O)NC4=O)c3c2)C[C@H](C)N1CC1CCCCC1 [Example 258, 1-(5-(((3S,5S)-4-(cyclohexylmethyl)-3,5-dimethylpiperazin-1-yl)methyl)pyrazolo[1,5-a]pyridin-3-yl)dihydropyrimidine-2,4(1H,3H)-dione]",,,
6%,94%,> 25000 nM,"O=C1CCN(c2cnn3ccc(CN4C[C@@H]5C[C@H]4CN5Cc4cccnc4)cc23)C(=O)N1 [Example 237, 1-(5-(((1S,4S)-5-(pyridin-3-ylmethyl)-2,5-diazabicyclo[2.2.1]heptan-2-yl)methyl)pyrazolo[1,5-a]pyridin-3-yl)dihydropyrimidine-2,4(1H,3H)-dione]",,,
52%,48%,351 nM,"COC[C@H]1CN(Cc2ccn3ncc(N4CCC(=O)NC4=O)c3c2)CCN1CC(C)C [Example 245, (R)-1-(5-((4-isobutyl-3-(methoxymethyl)piperazin-1-yl)methyl)pyrazolo[1,5-a]pyridin-3-yl)dihydropyrimidine-2,4(1H,3H)-dione]",,,
63%,37%,417 nM,"O=C1CCN(c2cnn3ccc(CN4CCN5CCC[C@@H]5C4)cc23)C(=O)N1 [Example 261, (R)-1-(5-((hexahydropyrrolo[1,2-a]pyrazin-2(1H)-yl)methyl)pyrazolo[1,5-a]pyridin-3-yl)dihydropyrimidine-2,4(1H,3H)-dione]",,,
76%,24%,73 nM,C[C@H]1CN(Cc2ccn3ncc(N4CCC(=O)NC4=O)c3c2)CCN1C1COC1 [Example 331],,,
87%,13%,108 nM,"CC(C)CN1CC[C@@H](Cc2ccn3ncc(-n4ccc(=O)[nH]c4=O)c3c2)C[C@@H]1C [Example 346, 1-(5-(((2S,4R)-1-isobutyl-2-methylpiperidin-4-yl)methyl)pyrazolo[1,5-a]pyridin-3-yl)pyrimidine-2,4(1H,3H)-dione]",,,
83%,17%,61 nM,"CO[C@H]1C[C@H](CN2CCN(Cc3ccn4ncc(N5CCC(=O)NC5=O)c4c3)C[C@@H]2C)C1 [Example 316, 1-(5-(((S)-4-(((1r,3S)-3-methoxycyclobutyl)methyl)-3-methylpiperazin-1-yl)methyl)pyrazolo[1,5-a]pyridin-3-yl)dihydropyrimidine-2,4(1H,3H)-dione]",,,
0%,100%,> 25000 nM,"O=C1CCN(c2cnn3ccc(CN4CCN(CC5CCCCC5)[C@@H](C(F)F)C4)cc23)C(=O)N1 [Example 246, (R)-1-(5-((4-(cyclohexylmethyl)-3-(difluoromethyl)piperazin-1-yl)methyl)pyrazolo[1,5-a]pyridin-3-yl)dihydropyrimidine-2,4(1H,3H)-dione]",,,
83%,17%,4 nM,"O=C1CCN(c2cnn3ccc(CC4CCN(C5COC5)CC4)cc23)C(=O)N1 [Example 281, 1-(5-((1-(oxetan-3-yl)piperidin-4-yl)methyl)pyrazolo[1,5-a]pyridin-3-yl)dihydropyrimidine-2,4(1H,3H)-dione]",,,
90%,10%,28 nM,"C[C@H]1C[C@H](Cc2ccn3ncc(-n4cc(F)c(=O)[nH]c4=O)c3c2)CCN1CC1CCC(F)(F)CC1 [Example 350, 1-(5-(((2S,4R)-1-((4,4-difluorocyclohexyl)methyl)-2-methylpiperidin-4-yl)methyl)pyrazolo[1,5-a]pyridin-3-yl)-5-fluoropyrimidine-2,4(1H,3H)-dione]",,,
77%,23%,44 nM,"C[C@H]1CC(F)(Cc2ccn3ncc(N4CCC(=O)NC4=O)c3c2)CCN1CC1CCC(F)(F)CC1 (single isomer, unassigned) [Example 308]",,,

# More lines, now with the values behind:
Compound,Dmax at 25 µM [1],remaining activity at 25 µM [2],DC50 [3],"Dmax (HEK-293T, read-out: % degradation of WIZ (100 − Amax))","remaining activity (HEK-293T, read-out: WIZ Amax)","DC50 (read-out: WIZ AC50; WIZ HiBit assay in 293T cells; 10-point, 5-fold dose response, highest concentration 25 μM, about 18 hours)"
"CC1(C)CN(Cc2ccn3ncc(N4CCC(=O)NC4=O)c3c2)CCN1CC1CCOCC1 [Example 232, 1-(5-((3,3-dimethyl-4-((tetrahydro-2H-pyran-4-yl)methyl)piperazin-1-yl)methyl)pyrazolo[1,5-a]pyridin-3-yl)dihydropyrimidine-2,4(1H,3H)-dione]",48%,52%,206 nM,,,
CC(C)S(=O)(=O)N1CCC(Cc2ccn3ncc(N4CCC(=O)NC4=O)c3c2)CC1 [Example 85],83%,17%,38 nM,,,
"O=C1CCN(c2cnn3ccc(CN4C[C@@H]5C[C@H]4CN5CC4CCCCC4)cc23)C(=O)N1 [Example 236, 1-(5-(((1S,4S)-5-(cyclohexylmethyl)-2,5-diazabicyclo[2.2.1]heptan-2-yl)methyl)pyrazolo[1,5-a]pyridin-3-yl)dihydropyrimidine-2,4(1H,3H)-dione]",5%,95%,3200 nM,,,
"O=C1CCN(c2cnn3ccc(CC4CCN(CC5COC5)CC4)cc23)C(=O)N1 [Example 119, 1-(5-((1-(oxetan-3-ylmethyl)piperidin-4-yl)methyl)pyrazolo[1,5-a]pyridin-3-yl)dihydropyrimidine-2,4(1H,3H)-dione]",82%,18%,109 nM,,,
"CC(c1cccnc1)N1CCC(Cc2ccn3ncc(N4CCC(=O)NC4=O)c3c2)CC1 (stereo not drawn) [Example 21, 1-(5-((1-(1-(pyridin-3-yl)ethyl)piperidin-4-yl)methyl)pyrazolo[1,5-a]pyridin-3-yl)dihydropyrimidine-2,4(1H,3H)-dione]",78%,22%,25 nM,,,
"O=C1CCN(c2cnn3ccc(CC4CCN(Cc5ccccc5F)CC4)cc23)C(=O)N1 [Example 38, 1-(5-((1-(2-fluorobenzyl)piperidin-4-yl)methyl)pyrazolo[1,5-a]pyridin-3-yl)dihydropyrimidine-2,4(1H,3H)-dione]",71%,29%,112 nM,,,
O=C1CCN(c2cnn3ccc(CC4CCN(Cc5ccccn5)CC4)cc23)C(=O)N1 [Example 111],56%,44%,304 nM,,,
O=C1CCN(c2cnn3ccc(CN4CCN(CC5CCCOC5)CC4)cc23)C(=O)N1 (stereo not drawn) [Example 162],79%,21%,79 nM,,,
O=C1CCN(c2cnn3ccc(CC4CCN(S(=O)(=O)C5CCCC5)CC4)cc23)C(=O)N1 [Example 82],90%,10%,33 nM,,,
COCCS(=O)(=O)N1CCC(Cc2ccn3ncc(N4CCC(=O)NC4=O)c3c2)CC1 [Example 92],69%,31%,131 nM,,,
"O=C1CCN(c2cnn3ccc(CN4C[C@H]5CC[C@@H](C4)N5Cc4cccc(F)c4)cc23)C(=O)N1 [Example 251, 1-(5-(((1R,5S)-8-(3-fluorobenzyl)-3,8-diazabicyclo[3.2.1]octan-3-yl)methyl)pyrazolo[1,5-a]pyridin-3-yl)dihydropyrimidine-2,4(1H,3H)-dione]",18%,82%,165 nM,,,
"Cc1c(F)cccc1CN1CCC(Cc2ccn3ncc(N4CCC(=O)NC4=O)c3c2)CC1 [Example 42, 1-(5-((1-(3-fluoro-2-methylbenzyl)piperidin-4-yl)methyl)pyrazolo[1,5-a]pyridin-3-yl)dihydropyrimidine-2,4(1H,3H)-dione]",70%,30%,26 nM,,,
"CCN1CCC(Cc2ccn3ncc(N4CCC(=O)NC4=O)c3c2)CC1 [Example 24, 1-(5-((1-ethylpiperidin-4-yl)methyl)pyrazolo[1,5-a]pyridin-3-yl)dihydropyrimidine-2,4(1H,3H)-dione]",77%,23%,1080 nM,,,
C[C@@H]1CN(CC2CCOCC2)CCN1Cc1ccn2ncc(N3CCC(=O)NC3=O)c2c1 [Example 219],75%,25%,212 nM,,,
"O=C1CCN(c2cnn3ccc(CC4CCN(CCc5c[nH]cn5)CC4)cc23)C(=O)N1 [Example 120, 1-(5-((1-(2-(1H-imidazol-4-yl)ethyl)piperidin-4-yl)methyl)pyrazolo[1,5-a]pyridin-3-yl)dihydropyrimidine-2,4(1H,3H)-dione]",66%,34%,1430 nM,,,
"CC(C)(C1CCC(F)(F)CC1)N1CCN(Cc2ccn3ncc(N4CCC(=O)NC4=O)c3c2)CC1 [Example 181, 1-(5-((4-(2-(4,4-difluorocyclohexyl)propan-2-yl)piperazin-1-yl)methyl)pyrazolo[1,5-a]pyridin-3-yl)dihydropyrimidine-2,4(1H,3H)-dione]",,,,75%,25%,30 nM
